{"source": "patent US9751853B2", "about": "“Solid forms of 3-(5-amino-2-methyl-4-oxo-4H-quinazolin-3-yl)-piperidine-2,6-dione, and their pharmaceutical compositions and uses” (Celgene Corporation, priority 2011, dated 2017)", "key": {"[1]": {"assay": "Humidity studies, solid form by XRPD", "assay_type": "physicochemical", "description": "Humidity Studies: […] The vials were placed in 40° C./75% RH humidity chamber with one vial capped and one vial open. The solids were tested by XRPD after four weeks. […] X-ray Powder Diffraction (XRPD): XRPD analysis was conducted on a Thermo ARL X'TRA™ X-ray powder diffractometer using Cu Kα radiation at 1.54 Å. The instrument was equipped with a fine focus X-ray tube. The voltage and amperage of X-ray generator were set at 45 kV and 40 mA, respectively. The divergence slices were set at 4 mm and 2 mm and the measuring slices were set at 0.5 mm and 0.2 mm. Diffracted radiation was detected by a peltier-cooled Si(Li) solid-state detector. A theta-two theta continuous scan at 2.40°/min (0.5 sec/0.02° step) from 1.5°2θ to 40°2θ was used. A sintered alumina standard was used to check the peak position. In general, positions of XRPD peaks are expected to individually vary on a measurement-by-measurement basis by about +0.2°2θ. In general, as understood in the art, two XRPD patterns match one another if the characteristic peaks of the first pattern are located at approximately the same positions as the characteristic peaks of the second pattern. As understood in the art, determining whether two XRPD patterns match or whether individual peaks in two XRPD patterns match may require consideration of individual variables and parameters such as, but not limited to, preferred orientation, phase impurities, degree of crystallinity, particle size, variation in diffractometer instrument setup, variation in XRPD data collection parameters, and/or variation in XRPD data processing, among others. The determination of whether two patterns match may be performed by eye and/or by computer analysis."}, "[2]": {"assay": "Solvent/anti-solvent recrystallization, solid form by XRPD", "assay_type": "physicochemical", "conditions": "MeCN/H2O, ratio 1:5", "description": "Solvent/Anti-Solvent Recrystallization: The selected solvent (MeCN/water) was saturated with Compound A hydrochloride at room temperature. Once the solids were completely dissolved, an anti-solvent (acetone or IPA) was added into the solution. The mixture was stirred at room temperature overnight. If no precipitation occurred, the vial was further cooled by placing into a refrigerator (about 0-5° C.). The solids resulting from the recrystallization were filtered and air-dried.\nX-ray Powder Diffraction (XRPD): XRPD analysis was conducted on a Thermo ARL X'TRA™ X-ray powder diffractometer using Cu Kα radiation at 1.54 Å. The instrument was equipped with a fine focus X-ray tube. The voltage and amperage of X-ray generator were set at 45 kV and 40 mA, respectively. The divergence slices were set at 4 mm and 2 mm and the measuring slices were set at 0.5 mm and 0.2 mm. Diffracted radiation was detected by a peltier-cooled Si(Li) solid-state detector. A theta-two theta continuous scan at 2.40°/min (0.5 sec/0.02° step) from 1.5°2θ to 40°2θ was used. A sintered alumina standard was used to check the peak position. In general, positions of XRPD peaks are expected to individually vary on a measurement-by-measurement basis by about +0.2°2θ. […]"}, "[3]": {"assay": "Grinding studies, solid form by XRPD", "assay_type": "physicochemical", "description": "Grinding Studies: Grinding experiments were performed using a Wig-L-Bug shaker. About 50 mg of Compound A hydrochloride was added to a polystyrene tube (1″×½″) with a Plexi bead (⅜″). The vial was capped and placed on the shaker for about 50 s. For wet grinding, drops of water were added to the vial and a wet paste was formed prior to placing on the shaker.\n(§1) X-ray Powder Diffraction (XRPD): XRPD analysis was conducted on a Thermo ARL X'TRA™ X-ray powder diffractometer using Cu Kα radiation at 1.54 Å. The instrument was equipped with a fine focus X-ray tube. The voltage and amperage of X-ray generator were set at 45 kV and 40 mA, respectively. The divergence slices were set at 4 mm and 2 mm and the measuring slices were set at 0.5 mm and 0.2 mm. Diffracted radiation was detected by a peltier-cooled Si(Li) solid-state detector. A theta-two theta continuous scan at 2.40°/min (0.5 sec/0.02° step) from 1.5°2θ to 40°2θ was used. A sintered alumina standard was used to check the peak position. In general, positions of XRPD peaks are expected to individually vary on a measurement-by-measurement basis by about +0.2°2θ. In general, as understood in the art, two XRPD patterns match one another if the characteristic peaks of the first pattern are located at approximately the same positions as the characteristic peaks of the second pattern. As understood in the art, determining whether two XRPD patterns match or whether individual peaks in two XRPD patterns match may require consideration of individual variables and parameters such as, but not limited to, preferred orientation, phase impurities, degree of crystallinity, particle size, variation in diffractometer instrument setup, variation in XRPD data collection parameters, and/or variation in XRPD data processing, among others. The determination of whether two patterns match may be performed by eye and/or by computer analysis."}, "[4]": {"assay": "Stability upon compression", "conditions": "2000-psi pressure for about 1 minute"}, "[5]": {"assay": "Equilibration/slurry experiments, solid form by XRPD", "assay_type": "physicochemical", "description": "Equilibration/Slurry and Evaporation: Equilibration and evaporation experiments were carried out by adding an excess of Compound A hydrochloride to about 2 mL of a test solvent. The resulting mixture was agitated for at least 24 hrs at about 25° C. or about 50° C. Upon reaching equilibrium, the saturated solution was removed and allowed to evaporate slowly in an open vial under nitrogen at about 25° C. and about 50° C., respectively. The solids resulting from the equilibration were filtered and dried in the air.\nas §1"}, "[6]": {"assay": "Chemical stability upon storage"}}, "note": "“Also recorded” adds a separate entry of the source.", "data": [{"compound": "Cc1nc2cccc(N)c2c(=O)n1C1CCC(=O)NC1=O.Cl", "note": "(stereo not shown) [Form A1, 3-(5-amino-2-methyl-4-oxo-4H-quinazolin-3-yl)-piperidine-2,6-dione hydrochloride]", "values": [{"measurement": "Solid form after humidity exposure", "setting": "[1]; 40° C./75% RH environment for four weeks", "result": "not changed"}, {"measurement": "XRPD Result after humidity exposure", "setting": "[1]; 40° C./75% RH for 4 weeks, closed vial", "result": "Form A1"}, {"measurement": "XRPD Result after humidity exposure", "setting": "[1]; 40° C./75% RH for 4 weeks, open vial", "result": "Form A1"}, {"measurement": "XRPD Result after humidity exposure", "setting": "[1]; 95% RH at room temperature for 4 days, hydrochloride", "result": "not changed; also recorded: Form A1"}, {"measurement": "XRPD Result after recrystallization", "setting": "[2]; antisolvent Acetone", "result": "Form A1"}, {"measurement": "XRPD Result after recrystallization", "setting": "[2]; antisolvent IPA, hydrochloride", "result": "partial salt dissociation; also recorded: Form Al + Form A"}, {"measurement": "XRPD Result after grinding", "setting": "[3]; Dry grinding", "result": "unchanged"}, {"measurement": "XRPD Result after grinding", "setting": "[3]; Wet grinding (paste)", "result": "unchanged"}, {"measurement": "stability upon compression", "setting": "[4]", "result": "stable"}, {"measurement": "XRPD Result after equilibration", "setting": "[5]; slurry at 50° C., 2-Propanol", "result": "Form A1"}, {"measurement": "XRPD Result after equilibration", "setting": "[5]; slurry at 50° C., Acetone", "result": "Form A1"}, {"measurement": "XRPD Result after equilibration", "setting": "[5]; slurry at 50° C., Acetonitrile", "result": "Form A1"}, {"measurement": "XRPD Result after equilibration", "setting": "[5]; slurry at 50° C., Acetonitrile/Water (1:1)", "result": "Form A + Form A1"}, {"measurement": "XRPD Result after equilibration", "setting": "[5]; slurry at 50° C., Ethanol", "result": "Form A1"}, {"measurement": "XRPD Result after equilibration", "setting": "[5]; slurry at 50° C., Ethanol/Water (1:1)", "result": "Form A + Form A1"}, {"measurement": "XRPD Result after equilibration", "setting": "[5]; slurry at 50° C., Ethyl acetate", "result": "Form A1"}, {"measurement": "XRPD Result after equilibration", "setting": "[5]; slurry at 50° C., Heptane", "result": "Form A1"}, {"measurement": "XRPD Result after equilibration", "setting": "[5]; slurry at 50° C., Methanol", "result": "Form A1"}, {"measurement": "XRPD Result after equilibration", "setting": "[5]; slurry at 50° C., Methyl ethyl ketone", "result": "Form A1"}, {"measurement": "XRPD Result after equilibration", "setting": "[5]; slurry at 50° C., Tetrahydrofuran", "result": "Form A1"}, {"measurement": "XRPD Result after equilibration", "setting": "[5]; slurry at 50° C., Tetrahydrofuran/Water (1:1)", "result": "Form A1"}, {"measurement": "XRPD Result after equilibration", "setting": "[5]; slurry at 50° C., Toluene", "result": "Form A1"}, {"measurement": "XRPD Result after equilibration", "setting": "[5]; slurry at 50° C., Water", "result": "Form A + Form A1"}, {"measurement": "XRPD Result after equilibration", "setting": "[5]; slurry at 50° C., n-Butanol", "result": "Form A1"}, {"measurement": "XRPD Result after equilibration", "setting": "[5]; slurry at room temperature, 2-Propanol", "result": "Form A1"}, {"measurement": "XRPD Result after equilibration", "setting": "[5]; slurry at room temperature, Acetone", "result": "Form A1"}, {"measurement": "XRPD Result after equilibration", "setting": "[5]; slurry at room temperature, Acetonitrile", "result": "Form A1"}, {"measurement": "XRPD Result after equilibration", "setting": "[5]; slurry at room temperature, Acetonitrile/Water (1:1)", "result": "Form A + Form A1"}, {"measurement": "XRPD Result after equilibration", "setting": "[5]; slurry at room temperature, Ethanol", "result": "Form A1"}, {"measurement": "XRPD Result after equilibration", "setting": "[5]; slurry at room temperature, Ethanol/Water (1:1)", "result": "Form A + Form A1"}, {"measurement": "XRPD Result after equilibration", "setting": "[5]; slurry at room temperature, Ethyl acetate", "result": "Form A1"}, {"measurement": "XRPD Result after equilibration", "setting": "[5]; slurry at room temperature, Heptane", "result": "Form A1"}, {"measurement": "XRPD Result after equilibration", "setting": "[5]; slurry at room temperature, Methanol", "result": "Form A1"}, {"measurement": "XRPD Result after equilibration", "setting": "[5]; slurry at room temperature, Methyl ethyl ketone", "result": "Form A1"}, {"measurement": "XRPD Result after equilibration", "setting": "[5]; slurry at room temperature, Methyl t-butyl ether", "result": "Form A1"}, {"measurement": "XRPD Result after equilibration", "setting": "[5]; slurry at room temperature, Methylene chloride", "result": "Form A1"}, {"measurement": "XRPD Result after equilibration", "setting": "[5]; slurry at room temperature, Tetrahydrofuran", "result": "Form A1"}, {"measurement": "XRPD Result after equilibration", "setting": "[5]; slurry at room temperature, Tetrahydrofuran/Water (1:1)", "result": "Form A + Form A1"}, {"measurement": "XRPD Result after equilibration", "setting": "[5]; slurry at room temperature, Toluene", "result": "Form A1"}, {"measurement": "XRPD Result after equilibration", "setting": "[5]; slurry at room temperature, Water", "result": "Form A + Form A1"}, {"measurement": "XRPD Result after equilibration", "setting": "[5]; slurry at room temperature, n-Butanol", "result": "Form A1"}, {"measurement": "chemical stability upon storage", "setting": "[6]; 40° C. and 75% relative humidity (RH)", "result": "chemically stable"}, {"measurement": "chemical stability upon storage", "setting": "[6]; 40° C. under a nitrogen atmosphere", "result": "chemically stable"}, {"measurement": "chemical stability upon storage", "setting": "[6]; 40° C. under vacuum", "result": "chemically stable"}, {"measurement": "chemical stability upon storage", "setting": "[6]; 60° C. in a closed container", "result": "chemically stable"}, {"measurement": "chemical stability upon storage", "setting": "[6]; room temperature, exposed to air and light, for 6 weeks", "result": "chemically stable"}]}]}
